Measured values published in ChEMBL document CHEMBL5550205, “Discovery of a NCOA4 Degrader for Labile Iron-Dependent Ferroptosis Inhibition” (J Med Chem, 2024).
pEC50: −log10 of the molar value. The source made the active and inactive calls. The rule behind the calls is not given here.

Legend:
[1] = system: AML12; test: Protection against FINO2-induced ferroptosis in mouse AML12 cells assessed as reduction in lipid peroxidation level at 200 nM measured for 48 hrs; type: functional, cell-based
[2] = system: AML12; test: Protection against CCl4-induced ferroptosis in mouse AML12 cells assessed as reduction in Fe2+ level at 200 to 1000 nM FerroOrange dye based fluorescence analysis; type: functional, cell-based; conditions: dose 200-1000 nM
[3] = system: AML12; test: Protection against CCl4-induced ferroptosis in mouse AML12 cells assessed as reduction in ROS production at 200 to 1000 nM measured for 36 hrs; type: functional, cell-based; conditions: dose 200-1000 nM
[4] = system: AML12; test: Protection against CCl4-induced ferroptosis in mouse AML12 cells assessed as reduction in lipid peroxidation level at 200 to 1000 nM; type: functional, cell-based; conditions: dose 200-1000 nM
[5] = system: AML12; test: Protection against CCl4-induced ferroptosis in mouse AML12 cells assessed as reduction in MDA content at 200 to 1000 nM measured for 36 hrs; type: functional, cell-based; conditions: dose 200-1000 nM
[6] = system: AML12; test: Protection against CCl4-induced ferroptosis in mouse AML12 cells assessed as reduction in ptgs2 mRNA level at 200 to 1000 nM measured for 36 hrs by qRT-PCR analysis; type: functional, cell-based; conditions: dose 200-1000 nM
[7] = system: AML12; test: Protection against CCl4-induced ferroptosis in mouse AML12 cells assessed as […] at 200 nM measured for 48 hrs; type: functional, cell-based
[8] = system: AML12; test: Protection against CCl4-induced ferroptosis in mouse AML12 cells assessed as cell viability in presence of Ferrostatin-1; type: functional, cell-based
[9] = system: AML12; test: Protection against CCl4-induced ferroptosis in mouse AML12 cells assessed as cell viability in presence of Deferoxamine; type: functional, cell-based
[10] = system: Mus musculus; test: Inhibition of CCl4-induced ferroptosis in acute liver injury C57BL/6 mouse model assessed as downregulation of NCOA4 level at 10 to 30 mg/kg, ip pretreated with compound for 3 hrs followed by CCl4 induction and measured after 12 to 24 hrs by Western blot analysis; type: functional, organism-based; conditions: dose 10-30 mg/kg, time 15-27 hrs
[11] = system: Mus musculus; test: Inhibition of CCl4-induced ferroptosis in acute liver injury C57BL/6 mouse model assessed as downregulation of FTH1 level at 10 to 30 mg/kg, ip pretreated with compound for 3 hrs followed by CCl4 induction and measured after 12 to 24 hrs by Western blot analysis; type: functional, organism-based; conditions: dose 10-30 mg/kg, time 15-27 hrs
[12] = system: Mus musculus; test: Inhibition of CCl4-induced ferroptosis in acute liver injury C57BL/6 mouse model assessed as downregulation of FTL level at 10 to 30 mg/kg, ip pretreated with compound for 3 hrs followed by CCl4 induction and measured after 12 to 24 hrs by Western blot analysis; type: functional, organism-based; conditions: dose 10-30 mg/kg, time 15-27 hrs
[13] = system: Mus musculus; test: Inhibition of CCl4-induced ferroptosis in acute liver injury C57BL/6 mouse model assessed as attenuation of iron deposition in liver at 10 to 30 mg/kg, ip pretreated with compound for 3 hrs followed by CCl4 induction and measured after 12 to 24 hrs by perls blue staining based analysis; type: functional, organism-based; conditions: dose 10-30 mg/kg, time 15-27 hrs
[14] = system: Mus musculus; test: Inhibition of CCl4-induced ferroptosis in acute liver injury C57BL/6 mouse model assessed as reduction in MDA content in liver at 10 to 30 mg/kg, ip pretreated with compound for 3 hrs followed by CCl4 induction and measured after 12 to 24 hrs; type: functional, organism-based; conditions: dose 10-30 mg/kg, time 15-27 hrs
[15] = system: Mus musculus; test: Inhibition of CCl4-induced ferroptosis in acute liver injury C57BL/6 mouse model assessed as reduction in ptgs2 mRNA level in liver at 10 to 30 mg/kg, ip pretreated with compound for 3 hrs followed by CCl4 induction and measured after 12 to 24 hrs; type: functional, organism-based; conditions: dose 10-30 mg/kg, time 15-27 hrs
[16] = system: Mus musculus; test: Inhibition of CCl4-induced ferroptosis in acute liver injury C57BL/6 mouse model assessed as restoration of liver color fading at 10 to 30 mg/kg, ip pretreated with compound for 3 hrs followed by CCl4 induction and measured after 12 to 24 hrs; type: functional, organism-based; conditions: dose 10-30 mg/kg, time 15-27 hrs
[17] = system: Mus musculus; test: Inhibition of CCl4-induced ferroptosis in acute liver injury C57BL/6 mouse model assessed as reduction in hepatocyte damage at 10 to 30 mg/kg, ip pretreated with compound for 3 hrs followed by CCl4 induction and measured after 12 to 24 hrs by H and E staining based analysis; type: functional, organism-based; conditions: dose 10-30 mg/kg, time 15-27 hrs
[18] = system: Mus musculus; test: Inhibition of CCl4-induced ferroptosis in acute liver injury C57BL/6 mouse model assessed as reduction in necrosis at 10 to 30 mg/kg, ip pretreated with compound for 3 hrs followed by CCl4 induction and measured after 12 to 24 hrs by H and E staining based analysis; type: functional, organism-based; conditions: dose 10-30 mg/kg, time 15-27 hrs
[19] = system: Mus musculus; test: Inhibition of CCl4-induced ferroptosis in acute liver injury C57BL/6 mouse model assessed as reduction in inflammation at 10 to 30 mg/kg, ip pretreated with compound for 3 hrs followed by CCl4 induction and measured after 12 to 24 hrs by H and E staining based analysis; type: functional, organism-based; conditions: dose 10-30 mg/kg, time 15-27 hrs
[20] = system: Mus musculus; test: Inhibition of CCl4-induced ferroptosis in acute liver injury C57BL/6 mouse model assessed as inhibition of AST level at 10 to 30 mg/kg, ip pretreated with compound for 3 hrs followed by CCl4 induction and measured after 12 to 24 hrs; type: functional, organism-based; conditions: dose 10-30 mg/kg, time 15-27 hrs
[21] = system: Mus musculus; test: Inhibition of CCl4-induced ferroptosis in acute liver injury C57BL/6 mouse model assessed as inhibition of ALT level at 10 to 30 mg/kg, ip pretreated with compound for 3 hrs followed by CCl4 induction and measured after 12 to 24 hrs; type: functional, organism-based; conditions: dose 10-30 mg/kg, time 15-27 hrs
[22] = system: Mus musculus; test: Inhibition of CCl4-induced ferroptosis in acute liver injury C57BL/6 mouse model assessed as reduction in IL-6 level in serum at 10 to 30 mg/kg, ip pretreated with compound for 3 hrs followed by CCl4 induction and measured after 12 to 24 hrs by ELISA analysis; type: functional, organism-based; conditions: dose 10-30 mg/kg, time 15-27 hrs
[23] = system: Mus musculus; test: Inhibition of CCl4-induced ferroptosis in acute liver injury C57BL/6 mouse model assessed as reduction in IL-1beta level in serum at 10 to 30 mg/kg, ip pretreated with compound for 3 hrs followed by CCl4 induction and measured after 12 to 24 hrs by ELISA analysis; type: functional, organism-based; conditions: dose 10-30 mg/kg, time 15-27 hrs
[24] = system: Mus musculus; test: Inhibition of CCl4-induced ferroptosis in acute liver injury C57BL/6 mouse model assessed as reduction in TNF-alpha level in serum at 10 to 30 mg/kg, ip pretreated with compound for 3 hrs followed by CCl4 induction and measured after 12 to 24 hrs by ELISA analysis; type: functional, organism-based; conditions: dose 10-30 mg/kg, time 15-27 hrs
[25] = system: Mus musculus; test: Inhibition of CCl4-induced ferroptosis in acute liver injury C57BL/6 mouse model assessed as decrease in IL-6 expression in liver at 10 to 30 mg/kg, ip pretreated with compound for 3 hrs followed by CCl4 induction and measured after 12 to 24 hrs by q-PCR analysis; type: functional, organism-based; conditions: dose 10-30 mg/kg, time 15-27 hrs
[26] = system: Mus musculus; test: Inhibition of CCl4-induced ferroptosis in acute liver injury C57BL/6 mouse model assessed as decrease in IL-1beta expression in liver at 10 to 30 mg/kg, ip pretreated with compound for 3 hrs followed by CCl4 induction and measured after 12 to 24 hrs by q-PCR analysis; type: functional, organism-based; conditions: dose 10-30 mg/kg, time 15-27 hrs
[27] = system: Mus musculus; test: Inhibition of CCl4-induced ferroptosis in acute liver injury C57BL/6 mouse model assessed as decrease in TNF-alpha expression in liver at 10 to 30 mg/kg, ip pretreated with compound for 3 hrs followed by CCl4 induction and measured after 12 to 24 hrs by q-PCR analysis; type: functional, organism-based; conditions: dose 10-30 mg/kg, time 15-27 hrs

Cc1ncsc1-c1ccc(CNC(=O)[C@@H]2C[C@@H](O)CN2C(=O)[C@H](NC(=O)CCCC(=O)NCCOCCOCCOCCOc2ccc3c(c2)CCN(c2cccc(-c4nc5ccc(N6CCN(C)CC6)cc5[nH]4)c2)C3)C(C)(C)C)cc1
Activity [1]: Active
Activity [2]: Active
Activity [3]: Active
Activity [4]: Active
Activity [5]: Active
Activity [6]: Active
Activity [7]: Active
pEC50 [8]: 8.05
pEC50 [9]: 6.39
inhibition [10]: Active
inhibition [11]: Active
inhibition [12]: Active
inhibition [13]: Active
inhibition [14]: Active
inhibition [15]: Active
inhibition [16]: Active
inhibition [17]: Active
inhibition [18]: Active
inhibition [19]: Active
inhibition [20]: Active
inhibition [21]: Active
inhibition [22]: Active
inhibition [23]: Active
inhibition [24]: Active
inhibition [25]: Active
inhibition [26]: Active
inhibition [27]: Active
